In patent US20230117034A1, “PYRAZOLOTRIAZINES” (Bayer Aktiengesellschaft, priority 2019, published 2023):

Assays:
CDK2/CycE = molecular target: T1, CDK2/CycE (Homo sapiens, UniProt P24941); test: CDK2/CycE kinase assay (TR-FRET, 2 mM ATP); assay type: biochemical; settings: 2 mM ATP (high ATP); median; read-out: CDK2/CyclinE, 2 mM ATP (high ATP), IC50 (median)
T1 construct: purchased ProQinase GmbH (Freiburg, Germany); host or cells: insect cells (Sf9)
Description: CDK2/CycE-inhibitory activity of compounds of the present invention was quantified employing the CDK2/CycE TR-FRET assay as described in the following paragraphs.
Recombinant fusion proteins of GST and human CDK2 and of GST and human CycE, expressed in insect cells (Sf9) and purified by Glutathion-Sepharose affinity chromatography, were purchase from ProQinase GmbH (Freiburg, Germany). As substrate for the kinase reaction biotinylated peptide biotin-Ttds-YISPLKSPYKISEG (C-terminus in amid form) was used which can be purchased e.g. form the company JERINI peptide technologies (Berlin, Germany).
For the assay 50 nanoL of a 100 fold concentrated solution of the test compound in DMSO was pipetted into a black low volume 384 well microtiter plate or a black 1536 well microtiter plate (both Greiner Bio-One, Frickenhausen, Germany), 2 microL of a solution of CDK2/CycE in aqueous assay buffer [50 millimol/L Tris/HCl pH 8.0, 10 millimol/L MgCl2, 1.0 millimol/L dithiothreitol, 0.1 millimol/L sodium ortho-vanadate, 0.01% (v/v) Nonidet-P40 (Sigma)] were added and the mixture was incubated for 15 min at 22° C. to allow pre-binding of the test compounds to the enzyme before the start of the kinase reaction. Then the kinase reaction was started by the addition of 3 microL of a solution of adenosine-tri-phosphate (ATP, 3.33 millimol/L=>final conc. in the 5 microL assay volume is 2 millimol/L) and substrate (1.25 micromol/L=>final conc. in the 5 microL assay volume is 0.75 micromol/L) in assay buffer and the resulting mixture was incubated for a reaction time of 25 min at 22° C. The concentration of CDK2/CycE was adjusted depending of the activity of the enzyme lot and was chosen appropriate to have the assay in the linear range, typical concentrations were in the range of 10 ng/ml. The reaction was stopped by the addition of 3 microL of a solution of TR-FRET detection reagents (0.333 micromol/L streptavidine-XL665 [Cisbio Bioassays, Codolet, France] and 1.67 nanomol/L anti-RB(pSer807/pSer8l 1)-antibody from BD Pharmingen [#558389] and 2 nanomol/L LANCE EU-W1024 labeled anti-mouse IgG antibody [Perkin-Elmer, product no. AD0077, as an alternative a Terbium-cryptate-labeled anti-mouse IgG antibody from Cisbio Bioassays can be used]) in an aqueous EDTA-solution (167 millimol/L EDTA, 0.2% (w/v) bovine serum albumin in 100 millimol/L HEPES pH 7.5).
(§1) The resulting mixture was incubated 1 h at 22° C. to allow the formation of complex between the phosphorylated biotinylated peptide and the detection reagents. Subsequently the amount of phosphorylated substrate was evaluated by measurement of the resonance energy transfer from the Eu-chelate to the streptavidine-XL. Therefore, the fluorescence emissions at 620 nm and 665 nm after excitation at 350 nm was measured in a TR-FRET reader, e.g. a Pherastar (BMG Labtechnologies, Offenburg, Germany) or a Viewlux (Perkin-Elmer). The ratio of the emissions at 665 nm and at […] was taken as the measure for the amount of phosphorylated substrate. The data were normalised (enzyme reaction without inhibitor=0% inhibition, all other assay components but no enzyme=100% inhibition).

CDK9/CycT1 = molecular target: T2, CDK9/CycT1 (Homo sapiens, UniProt P50750); test: CDK9/CycT1 high ATP kinase assay (TR-FRET, 2 mM ATP); assay type: biochemical; settings: 2 mM ATP (high ATP); median; read-out: CDK9/CyclinT1, 2 mM ATP (high ATP), IC50 (median)
T2 construct: Recombinant full-length His-tagged human CDK9 and CycT1; purchased Life Technologies PV4131; host or cells: insect cells
T2 sequence (P50750 whole entry): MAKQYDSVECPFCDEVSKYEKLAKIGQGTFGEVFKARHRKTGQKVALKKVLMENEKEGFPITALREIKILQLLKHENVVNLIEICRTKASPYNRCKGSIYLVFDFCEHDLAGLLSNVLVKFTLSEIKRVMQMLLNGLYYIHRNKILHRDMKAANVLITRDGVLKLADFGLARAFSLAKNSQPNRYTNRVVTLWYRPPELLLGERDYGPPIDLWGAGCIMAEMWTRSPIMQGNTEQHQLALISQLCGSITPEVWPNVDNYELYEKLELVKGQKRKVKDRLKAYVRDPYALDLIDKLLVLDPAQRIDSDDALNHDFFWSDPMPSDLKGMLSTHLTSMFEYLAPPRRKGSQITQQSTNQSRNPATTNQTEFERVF
T2 sequence (O60563 whole entry partner): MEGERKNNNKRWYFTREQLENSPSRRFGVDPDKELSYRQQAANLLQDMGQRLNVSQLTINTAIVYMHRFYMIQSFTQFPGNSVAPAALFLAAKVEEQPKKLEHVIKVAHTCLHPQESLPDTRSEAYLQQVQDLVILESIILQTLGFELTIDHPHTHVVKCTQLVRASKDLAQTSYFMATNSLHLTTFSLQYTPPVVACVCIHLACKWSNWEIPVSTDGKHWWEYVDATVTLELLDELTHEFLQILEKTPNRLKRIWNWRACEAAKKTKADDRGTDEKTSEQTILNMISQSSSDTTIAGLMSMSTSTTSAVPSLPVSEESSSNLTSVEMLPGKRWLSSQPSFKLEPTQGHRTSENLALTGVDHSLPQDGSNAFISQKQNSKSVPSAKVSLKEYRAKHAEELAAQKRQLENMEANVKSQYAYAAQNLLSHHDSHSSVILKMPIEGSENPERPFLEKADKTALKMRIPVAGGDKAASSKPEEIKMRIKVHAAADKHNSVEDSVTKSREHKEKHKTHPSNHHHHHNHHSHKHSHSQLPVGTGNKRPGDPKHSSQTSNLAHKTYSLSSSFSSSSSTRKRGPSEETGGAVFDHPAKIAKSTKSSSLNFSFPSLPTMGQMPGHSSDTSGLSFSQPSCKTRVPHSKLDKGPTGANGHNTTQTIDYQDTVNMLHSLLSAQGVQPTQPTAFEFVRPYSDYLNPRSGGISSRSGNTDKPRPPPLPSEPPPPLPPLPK
Procedure: CDK9/CycT1-inhibitory activity of compounds of the present invention at a high ATP concentration after preincubation of enzyme and test compounds was quantified employing the CDK9/CycT1 TR-FRET assay as described in the following paragraphs.
Recombinant full-length His-tagged human CDK9 and CycT1, expressed in insect cells and purified by Ni-NTA affinity chromatography, were purchased from Life Technologies (Cat. No PV4131). As substrate for the kinase reaction biotinylated peptide biotin-Ttds-[…] (C-terminus in amide form) was used which can be purchased e.g. form the company JERINI peptide technologies (Berlin, Germany).
For the assay 50 nanoL of a 100 fold concentrated solution of the test compound in DMSO was pipetted into either a black low volume 384 well microtiter plate or a black 1536 well microtiter plate (both Greiner Bio-One, Frickenhausen, Germany), 2 microL of a solution of CDK9/CycT1 in aqueous assay buffer [50 millimol/L Tris/HCl pH 8.0, 10 millimol/L MgCl2, 1.0 millimol/L dithiothreitol, 0.1 millimol/L sodium ortho-vanadate, 0.01% (v/v) Nonidet-P40 (Sigma)] were added and the mixture was incubated for 15 min at 22° C. to allow pre-binding of the test compounds to the enzyme before the start of the kinase reaction. […] The concentration of CDK9/CycT1 was adjusted depending of the activity of the enzyme lot and was chosen appropriate to have the assay in the linear range, typical concentrations were in the range of 0.5 microg/ml.
as §1, with “substrate.” for “substrate. The data were normalised (enzyme reaction without inhibitor=0% inhibition, all other assay components but no enzyme=100% inhibition).”

SMILES | IC50 (CDK2/CycE) [µM] | IC50 (CDK9/CycT1) [µM]
Brc1cnn2c(NCc3nc4ccccc4[nH]3)nc(N3C[C@H]4C[C@@H]3CO4)nc12 [Example 102, N-[(1H-benzimidazol-2-yl)methyl]-8-bromo-2-[(1R,4R)-2-oxa-5-azabicyclo[2.2.1]heptan-5-yl]pyrazolo[1,5-a][1,3,5]triazin-4-amine] | 2.42 | > 20
Fc1cc(-c2nnc(CNc3nc(N4CCOCC4)nc4c(Br)cnn34)[nH]2)cc(F)c1F [Example 100, 8-bromo-2-(morpholin-4-yl)-N-{[5-(3,4,5-trifluorophenyl)-4H-1,2,4-triazol-3-yl]methyl}pyrazolo[1,5-a][1,3,5]triazin-4-amine] | 1.83 | 0.82
Fc1ccc(-c2nnc(CNc3nc(N4CCOCC4)nc4c(Br)cnn34)[nH]2)cc1F [Example 99, 8-bromo-N-{[5-(3,4-difluorophenyl)-4H-1,2,4-triazol-3-yl]methyl}-2-(morpholin-4-yl)pyrazolo[1,5-a][1,3,5]triazin-4-amine] | 1.77 | 0.97
Clc1ccc2[nH]c(CNc3nc(N4CCOCC4)nc4c(Br)cnn34)nc2c1 [Example 162, 8-bromo-N-[(5-chloro-1H-benzimidazol-2-yl)methyl]-2-(morpholin-4-yl)pyrazolo[1,5-a][1,3,5]triazin-4-amine] | 4.63 | 17.4
Fc1ccccc1-c1cnn2c(NCc3nc4ccccc4[nH]3)nc(N3CCOCC3)nc12 [Example 95, N-[(1H-benzimidazol-2-yl)methyl]-8-(2-fluorophenyl)-2-(morpholin-4-yl)pyrazolo[1,5-a][1,3,5]triazin-4-amine] | > 20 | > 20
[O-][S+]1CCN(c2nc(NCc3nc4ccccc4[nH]3)n3ncc(Br)c3n2)CC1 [Example 144, 4-(4-{[(1H-benzimidazol-2-yl)methyl]amino}-8-bromopyrazolo[1,5-a][1,3,5]triazin-2-yl)-1lambda^4-thiomorpholin-1-one] | 7.81 | > 20
Brc1cnn2c(NCc3nnc(-c4ccccc4)[nH]3)nc(N3CCNCC3)nc12.O=CO [Example 119, 8-bromo-N-[(5-phenyl-4H-1,2,4-triazol-3-yl)methyl]-2-piperazin-1-yl-pyrazolo[1,5-a][1,3,5]triazin-4-amine formate] | 7.77 | 6.21
Cc1cccc2[nH]c(CNc3nc(N4CCOCC4)nc4c(Br)cnn34)nc12 [Example 150, 8-bromo-N-[(4-methyl-1H-benzimidazol-2-yl)methyl]-2-(morpholin-4-yl)pyrazolo[1,5-a][1,3,5]triazin-4-amine] | 4.36 | > 20
O=S1(=O)CCN(c2nc(NCc3nc4ccccc4[nH]3)n3ncc(Br)c3n2)CC1 [Example 166, 4-(4-{[(1H-benzimidazol-2-yl)methyl]amino}-8-bromopyrazolo[1,5-a][1,3,5]triazin-2-yl)-1 lambda^6-thiomorpholine-1,1-dione] | 4.7 | > 20
CC(=O)NCCCc1cccc2[nH]c(CNc3nc(N4CCOCC4)nc4c(Br)cnn34)nc12.O=CO [Example 115, formic acid-N-{3-[2-({[8-bromo-2-(morpholin-4-yl)pyrazolo[1,5-a][1,3,5]triazin-4-yl]amino}methyl)-1H-benzimidazol-4-yl]propyl}acetamide (1/1)] | 10.7 | > 20
Brc1cnn2c(NCc3nc4ccccc4[nH]3)nc(N3CCN(C4CC4)CC3)nc12 [Example 138, N-[(1H-benzimidazol-2-yl)methyl]-8-bromo-2-(4-cyclopropylpiperazin-1-yl)pyrazolo[1,5-a][1,3,5]triazin-4-amine] | > 20 | > 20
CC1(C)CN(c2nc(NCc3nnc(-c4ccccc4)[nH]3)n3ncc(C4CC4)c3n2)CCO1 [Example 94, 8-cyclopropyl-2-(2,2-dimethylmorpholin-4-yl)-N-[(5-phenyl-4H-1,2,4-triazol-3-yl)methyl]pyrazolo[1,5-a][1,3,5]triazin-4-amine] | > 20 | 12.8
NCCCc1cccc2[nH]c(CNc3nc(N4CCOCC4)nc4c(Br)cnn34)nc12.O=CO [Example 114, formic acid-N-{[4-(3-aminopropyl)-1H-benzimidazol-2-yl]methyl}-8-bromo-2-(morpholin-4-yl)pyrazolo[1,5-a][1,3,5]triazin-4-amine (1/1)] | 5.44 | > 20
Brc1cnn2c(NCc3nc4ccccc4[nH]3)nc(N3CCNCC3)nc12 [Example 128, N-[(1H-benzimidazol-2-yl)methyl]-8-bromo-2-(piperazin-1-yl)pyrazolo[1,5-a][1,3,5]triazin-4-amine] | 9.63 | > 20
Brc1cnn2c(NCc3nc4ccccc4[nH]3)nc(N3CCC3)nc12 [Example 143, 2-(azetidin-1-yl)-N-[(1H-benzimidazol-2-yl)methyl]-8-bromopyrazolo[1,5-a][1,3,5]triazin-4-amine] | 17.8 | > 20
C[C@@H]1CCCCN1c1nc(NCc2nc3ccccc3[nH]2)n2ncc(Br)c2n1 [Example 140, N-[(1H-benzimidazol-2-yl)methyl]-8-bromo-2-[(2R)-2-methylpiperidin-1-yl]pyrazolo[1,5-a][1,3,5]triazin-4-amine] | 1.25 | > 20
C[C@@H]1CN(c2nc(NCc3nnc(-c4ccccc4)[nH]3)n3ncc(Br)c3n2)CCN1C.O=CO [Example 130, 8-bromo-2-[(3R)-3,4-dimethylpiperazin-1-yl]-N-[(5-phenyl-4H-1,2,4-triazol-3-yl)methyl]pyrazolo[1,5-a][1,3,5]triazin-4-amine formate] | 8.15 | 4.86
Brc1cnn2c(NCc3nnc(-c4ccccc4)[nH]3)nc(N3C[C@@H]4C[C@H]3CO4)nc12 [Example 120, 8-bromo-2-[(1S,4S)-2-oxa-5-azabicyclo[2.2.1]heptan-5-yl]-N-[(5-phenyl-4H-1,2,4-triazol-3-yl)methyl]pyrazolo[1,5-a][1,3,5]triazin-4-amine] | 15.4 | 10.4
c1cncc(-c2cnn3c(NCc4nc5ccccc5[nH]4)nc(N4CCOCC4)nc23)c1 [Example 108, N-[(1H-benzimidazol-2-yl)methyl]-2-(morpholin-4-yl)-8-(pyridin-3-yl)pyrazolo[1,5-a][1,3,5]triazin-4-amine] | > 20 | > 20
